Legend:
DGKζ = target: T1, DGKζ (Homo sapiens, UniProt Q13574); assay: In vitro DGKζ inhibition assay (ADP-Glo); type: biochemical; conditions: His-tagged human recombinant enzyme, 0.4 nM DGKζ, 30 μM ATP, 20 μM DLG, 90 minute incubation
T1 construct: His; purchased Signal Chem D30-10H
Protocol: (§1) The DGKα and DGKζ biochemical reactions were performed using His-tagged human recombinant enzymes (Signal Chem, DGKα, #D21-10BH; DGKζ, #D30-10H)) and DLG (Dilauroyl-sn-glycerol) lipid substrate (Signal Chem, #D430-59). ADP-Glo assay was performed using ADP-Glo™ kinase Assay kit (Promega, #V9104). The reactions were carried out in assay buffer containing 40 mM Tris, pH 7.5, 0.1% CHAPS, 0.1% Prionex, 40 mM NaCl, 5 mM MgCl2, 1 mM CaCl2, and 1 mM DTT. DGKα reactions contained 0.1 nM DGKα, 50 μM ATP, and 20 μM DLG. And DGKζ reactions contained 0.4 nM DGKζ, 30 μM ATP, and 20 μM DLG.
(§2) For compound inhibition studies, 40 nL test compound in DMSO was added to wells of white polystyrene plates in 384-well (Greiner, #784075) or 1536-well format (Greiner, #782075). Compounds were added with top concentration of 2 mM with 11 point, 3-fold dilution series. Enzyme solution (contains 2× DGK enzyme concentration in 1× assay buffer) was added to the plate in 2 μL/well volume, followed by 2 μL/well of substrate solution (contains 2× concentration of ATP and DLG substrate in 1× assay buffer). Plates were then centrifuged for 1 min at 1200 RPM and sealed or lidded. For 4 μL reaction volume, test compounds were therefore diluted 100× to final top concentration of 20 μM. After 90 minute incubation, reactions were quenched by addition of 2 μL/well Promega ADP-Glo Reagent, followed by centrifugation and lidding. After 60 min incubation, 2 μL/well Promega Kinase Detection Reagent was added, plates centrifuged, and incubated for 30 min. Plates were then read using Luminescence method on BMG PHERAstar FSX plate reader. Percent inhibition was calculated and IC50s were determined using 4-parameter fit in Genedata Screener. Labcyte Echo acoustic dispenser was used for compound addition, and Formulatrix Tempest liquid handler was used for all reagent dispenses.

DGKα = target: T2, DGKα (Homo sapiens, UniProt P23743); assay: In vitro DGKα inhibition assay (ADP-Glo); type: biochemical; conditions: His-tagged human recombinant enzyme, 0.1 nM DGKα, 50 μM ATP, 20 μM DLG, 90 minute incubation
T2 construct: His; purchased Signal Chem D21-10BH
T2 sequence (P23743 whole entry): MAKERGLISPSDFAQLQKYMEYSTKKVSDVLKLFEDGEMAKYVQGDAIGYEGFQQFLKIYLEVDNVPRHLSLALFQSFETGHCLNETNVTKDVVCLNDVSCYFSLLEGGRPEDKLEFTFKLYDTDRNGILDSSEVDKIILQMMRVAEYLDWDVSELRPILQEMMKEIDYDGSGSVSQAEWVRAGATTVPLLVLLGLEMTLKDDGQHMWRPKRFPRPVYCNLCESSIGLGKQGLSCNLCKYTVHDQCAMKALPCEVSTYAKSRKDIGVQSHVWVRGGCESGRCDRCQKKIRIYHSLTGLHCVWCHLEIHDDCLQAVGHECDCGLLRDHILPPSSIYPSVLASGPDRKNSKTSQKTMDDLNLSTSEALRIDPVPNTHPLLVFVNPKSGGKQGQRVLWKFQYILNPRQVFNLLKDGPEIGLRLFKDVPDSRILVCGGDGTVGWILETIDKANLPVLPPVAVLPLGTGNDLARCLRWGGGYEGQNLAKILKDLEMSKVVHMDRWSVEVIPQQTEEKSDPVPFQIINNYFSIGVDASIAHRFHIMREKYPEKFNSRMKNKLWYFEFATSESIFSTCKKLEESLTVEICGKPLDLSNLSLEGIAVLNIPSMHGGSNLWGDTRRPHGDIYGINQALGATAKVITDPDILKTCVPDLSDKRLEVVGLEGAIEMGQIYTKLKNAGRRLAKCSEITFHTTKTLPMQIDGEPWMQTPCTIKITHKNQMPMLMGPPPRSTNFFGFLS
Protocol: as §1, §2

T1 sequence (Q13574 whole entry): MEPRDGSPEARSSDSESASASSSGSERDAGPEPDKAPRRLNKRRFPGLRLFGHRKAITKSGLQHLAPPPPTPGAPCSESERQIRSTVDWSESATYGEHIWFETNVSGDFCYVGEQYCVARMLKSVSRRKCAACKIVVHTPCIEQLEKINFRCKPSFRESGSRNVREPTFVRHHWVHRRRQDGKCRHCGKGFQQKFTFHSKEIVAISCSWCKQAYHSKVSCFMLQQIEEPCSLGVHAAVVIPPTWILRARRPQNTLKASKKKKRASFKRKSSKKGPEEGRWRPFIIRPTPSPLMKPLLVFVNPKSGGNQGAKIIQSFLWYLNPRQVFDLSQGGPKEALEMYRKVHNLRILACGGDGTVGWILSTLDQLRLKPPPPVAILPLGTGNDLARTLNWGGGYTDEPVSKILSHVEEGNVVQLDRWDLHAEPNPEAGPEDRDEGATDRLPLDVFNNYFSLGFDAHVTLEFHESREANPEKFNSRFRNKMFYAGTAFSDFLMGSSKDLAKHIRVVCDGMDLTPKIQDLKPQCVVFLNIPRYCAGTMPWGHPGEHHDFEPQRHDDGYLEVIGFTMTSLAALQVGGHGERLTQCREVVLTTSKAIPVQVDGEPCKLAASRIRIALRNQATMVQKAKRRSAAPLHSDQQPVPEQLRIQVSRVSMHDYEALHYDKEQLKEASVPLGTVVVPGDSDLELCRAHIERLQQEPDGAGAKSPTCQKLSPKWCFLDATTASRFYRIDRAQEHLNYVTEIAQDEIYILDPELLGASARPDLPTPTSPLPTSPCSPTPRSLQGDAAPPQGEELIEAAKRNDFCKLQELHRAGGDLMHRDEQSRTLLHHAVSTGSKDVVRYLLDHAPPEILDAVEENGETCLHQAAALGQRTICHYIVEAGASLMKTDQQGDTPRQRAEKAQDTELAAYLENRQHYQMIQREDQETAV

IC50 (DGKζ) [µM] | IC50 (DGKα) [µM] | SMILES
≤ 0.02 | ≤ 0.02 | CC[C@H]1CN(C(c2ccc(F)cc2)c2ccc(F)cc2)[C@H](CC)CN1c1nc2nncn2c2cccnc12 [Example 2, 5-((2S,5R)-4-(Bis(4-fluorophenyl)methyl)-2,5-diethylpiperazin-1-yl)pyrido[2,3-e][1,2,4]triazolo[4,3-a]pyrimidine]
0.02 to 0.2 | ≤ 0.02 | CC[C@@H]1CN(c2nc3nncn3c3cccnc23)[C@@H](C)CN1C(c1ccc(F)cc1)c1nc(C2CC2)no1 (mixture of isomers) [Example 9, 3-Cyclopropyl-5-(((2R,5S)-2-ethyl-5-methyl-4-(pyrido[2,3-e][1,2,4]triazolo[4,3-a]pyrimidin-5-yl)piperazin-1-yl)(4-fluorophenyl)methyl)-1,2,4-oxadiazole]
0.02 to 0.2 | ≤ 0.02 | CC[C@@H]1CN(c2nc3nncn3c3cccnc23)[C@@H](C)CN1Cc1ccc2cc(F)ccc2n1 [Example 10, 5-((2S,5R)-5-Ethyl-4-((6-fluoroquinolin-2-yl)methyl)-2-methylpiperazin-1-yl)pyrido[2,3-e][1,2,4]triazolo[4,3-a]pyrimidine]
> 2 | ≤ 0.02 | CC[C@H]1CN(C(c2ccc(F)cc2)c2ccc(F)cc2)[C@H](CC)CN1c1nc2nncn2c2cc(-c3cnn(C)c3)cnc12 [Example 6, 5-((2S,5R)-4-(Bis(4-fluorophenyl)methyl)-2,5-diethylpiperazin-1-yl)-8-(1-methyl-1H-pyrazol-4-yl)pyrido[2,3-e][1,2,4]triazolo[4,3-a]pyrimidine]
≤ 0.02 | ≤ 0.02 | CC[C@H]1CN(C(c2ccc(F)cc2)c2ccc(F)cc2)[C@H](CC)CN1c1nc2nncn2c2ccc(C)nc12 [Example 1, 5-((2S,5R)-4-(Bis(4-fluorophenyl)methyl)-2,5-diethylpiperazin-1-yl)-7-methylpyrido[2,3-e][1,2,4]triazolo[4,3-a]pyrimidine]
≤ 0.02 | ≤ 0.02 | CC[C@H]1CN(C(c2ccc(F)cc2)c2ccc(F)cc2)[C@H](CC)CN1c1nc2nncn2c2ccc(C#N)nc12 [Example 5, 5-((2S,5R)-4-(Bis(4-fluorophenyl)methyl)-2,5-diethylpiperazin-1-yl)pyrido[2,3-e][1,2,4]triazolo[4,3-a]pyrimidine-7-carbonitrile]
≤ 0.02 | ≤ 0.02 | CC[C@@H]1CN(c2nc3nncn3c3nccnc23)[C@@H](C)CN1C(c1ccc(F)cc1)c1ccc(F)cc1 [Example 8, 5-((2S,5R)-4-(Bis(4-fluorophenyl)methyl)-5-ethyl-2-methylpiperazin-1-yl)-[1,2,4]triazolo[4,3-a]pteridine]
≤ 0.02 | ≤ 0.02 | CC[C@H]1CN(C(c2ccc(F)cc2)c2ccc(F)cc2)[C@H](CC)CN1c1nc2nnc(C)n2c2cccnc12 [Example 3, 5-((2S,5R)-4-(Bis(4-fluorophenyl)methyl)-2,5-diethylpiperazin-1-yl)-1-methylpyrido[2,3-e][1,2,4]triazolo[4,3-a]pyrimidine]
0.02 to 0.2 | ≤ 0.02 | CC[C@@H]1CN(c2nc3nncn3c3cccnc23)[C@@H](C)CN1C(C(=O)OC)c1ccc(F)cc1 (single isomer, unassigned) [Example 12]
0.02 to 0.2 | ≤ 0.02 | CC[C@H]1CN(C(c2ccc(F)cc2)c2ccc(F)cc2)[C@H](CC)CN1c1cc2nncn2c2cccnc12 [Example 7, 5-((2S,5R)-4-(Bis(4-fluorophenyl)methyl)-2,5-diethylpiperazin-1-yl)-[1,2,4]triazolo[4,3-a][1,5]naphthyridine]
0.02 to 0.2 | 0.02 to 0.2 | CC[C@@H]1CN(c2nc3nncn3c3cccnc23)[C@@H](C)CN1C(c1ccc(F)cc1)C(C)(C)O (single isomer, unassigned) [Example 15]
0.02 to 0.2 | ≤ 0.02 | CC[C@@H]1CN(c2nc3nncn3c3cccnc23)[C@@H](C)CN1C(C(=O)OC)c1ccc(F)cc1 (single isomer, unassigned) [Example 13]
≤ 0.02 | ≤ 0.02 | CC[C@H]1CN(C(c2ccc(F)cc2)c2ccc(F)cc2)[C@H](CC)CN1c1nc2nncn2c2nccnc12 [Example 4, 5-((2S,5R)-4-(Bis(4-fluorophenyl)methyl)-2,5-diethylpiperazin-1-yl)-[1,2,4]triazolo[4,3-a]pteridine]
≤ 0.02 | ≤ 0.02 | CC[C@@H]1CN(c2nc3nncn3c3cccnc23)[C@@H](C)CN1Cc1cccc2ccccc12 [Example 11, 5-((2S,5R)-5-Ethyl-2-methyl-4-(naphthalen-1-ylmethyl)piperazin-1-yl)pyrido[2,3-e][1,2,4]triazolo[4,3-a]pyrimidine]
0.2 to 2 | ≤ 0.02 | CC[C@@H]1CN(c2nc3nncn3c3cccnc23)[C@@H](C)CN1C(c1ccc(F)cc1)C(C)(C)O (single isomer, unassigned) [Example 14]
